Reference: patent US20100317528A1, “HERBICIDE CONTAINING BENZOYLPYRAZOLE COMPOUND” (ISHIHARA SANGYO KAISHA, LTD., priority 2006, published 2010)

Each compound was assayed on corn (Zea mays L.) (assay: Test Example 1: foliar treatment, upland pot test, corn). Details: Zea mays, 31 g/ha active ingredient, observed 17th to 25th day after application, read-out: Growth inhibition rate (%) Corn.
Format: in vivo
Source text: (§1) Upland field soil was put into a 1/170,000 hectare pot, and seeds of various plants were sown. When the respective plants reached predetermined leaf stage ((1) barnyardgrass (Echinochloa crus-galli L.): 1.0 to 3.0 leaf stage, (2) crabgrass (Digitaria sanguinalis L.): 1.0 to 3.0 leaf stage, (3) green foxtail (Setaria viridis L.): 1.0 to 3.0 leaf stage, (4) redroot pigweed (Amaranthus retroflexus L.): cotyledon stage to 2.0 leaf stage, (5) prickly sida (Sida spinosa L.): cotyledon stage to 1.0 leaf stage, (6) velvetleaf (Abutilon theophrasti MEDIC.): 0.1 to 1.5 leaf stage, (7) rice (Oryza sativa L.): 1.0 to 3.0 leaf stage, (8) wheat (Triticum spp.): 1.7 to 3.4 leaf stage, (9) corn (Zea mays L.): 2.0 to 3.5 leaf stage, (10) soybean (Glycine max Merr.): primary leaf stage to 0.4 leaf stage), wettable powders or emulsifiable concentrates of the compounds of the above formula (I) prepared in accordance with a conventional preparation method, were weighed so that the active ingredients became the prescribed amounts, and diluted with water in an amount corresponding to 500 liter per 1 hectare (containing 0.1 vol % of “KUSARINOH”, manufactured by NIHON NOHYAKU CO., LTD. as an agricultural spreader). The spray solutions thus prepared were applied for foliar treatment by a small sprayer.
(§2) On the 17th to 25th day after application, the state of growth of the respective plants was visually observed, and the herbicidal effect was evaluated by a growth inhibition rate (%) of 0 (equivalent to the non-treated area) to 100% (complete kill).

| SMILES | inhibition at 31 g/ha [%] |
| --- | --- |
| CCOC(=O)c1c(S(C)(=O)=O)ccc(C(=O)c2cnn(CC)c2O)c1Cl [compound 153] | 0 |
| COc1c(S(C)(=O)=O)ccc(C(=O)c2cnn(C)c2O)c1C [compound 143] | 0 |

What follows are compounds tested on rice (Oryza sativa L.) (assay: Test Example 1: foliar treatment, upland pot test, rice). Details: Oryza sativa, 31 g/ha active ingredient, observed 17th to 25th day after application, read-out: Growth inhibition rate (%) Rice.
Format: in vivo
Source text: as §1, §2

| SMILES | inhibition at 31 g/ha [%] |
| --- | --- |
| CCOC(=O)c1c(S(C)(=O)=O)ccc(C(=O)c2cnn(CC)c2O)c1Cl [compound 153] | 40 |
| COc1c(S(C)(=O)=O)ccc(C(=O)c2cnn(C)c2O)c1C [compound 143] | 40 |

Each compound was assayed on soybean (Glycine max Merr.) (assay: Test Example 1: foliar treatment, upland pot test, soybean). Details: Glycine max, 31 g/ha active ingredient, observed 17th to 25th day after application, read-out: Growth inhibition rate (%) Soybean.
Format: in vivo
Source text: as §1, §2

| SMILES | inhibition at 31 g/ha [%] |
| --- | --- |
| CCOC(=O)c1c(S(C)(=O)=O)ccc(C(=O)c2cnn(CC)c2O)c1Cl [compound 153] | 70 |
| COc1c(S(C)(=O)=O)ccc(C(=O)c2cnn(C)c2O)c1C [compound 143] | 60 |

What follows are compounds tested on wheat (Triticum spp.) (assay: Test Example 1: foliar treatment, upland pot test, wheat). Details: Triticum, 31 g/ha active ingredient, observed 17th to 25th day after application, read-out: Growth inhibition rate (%) Wheat.
Format: in vivo
Source text: as §1, §2

| SMILES | inhibition at 31 g/ha [%] |
| --- | --- |
| CCOC(=O)c1c(S(C)(=O)=O)ccc(C(=O)c2cnn(CC)c2O)c1Cl [compound 153] | 0 |
| COc1c(S(C)(=O)=O)ccc(C(=O)c2cnn(C)c2O)c1C [compound 143] | 10 |

Each compound was assayed on soybean (Glycine max Merr.) (assay: Test Example 2: soil application on the day after sowing, soybean). Details: Glycine max, 250 g/ha active ingredient, observed 19th to 28th day after application, read-out: Growth inhibition rate (%) Soybean.
Format: in vivo
Source text: (§3) Upland field soil was put into a 1/170,000 hectare pot, and seeds of various plants barnyardgrass (Echinochloa crus-galli L.), crabgrass (Digitaria sanquinalis L.), green foxtail (Setaria viridis L.), redroot pigweed (Amaranthus retroflexus L.), prickly sida (Sida spinosa L.), velvetleaf (Abutilon theophrasti MEDIC.), rice (Oryza sativa L.), wheat (Triticum spp.), corn (Zea mays L.) and soybean (Glycine max Merr.)) were sown. On the day after sowing, wettable powders or emulsifiable concentrates of the compounds of the above formula (I) prepared in accordance with a conventional preparation method, were weighed so that the active ingredients became the prescribed amounts, and diluted with water in an amount corresponding to 500 liter per 1 hectare, followed by soil application with a small sprayer.
(§4) On the 19th to 28th day after the application, the state of growth of the respective plants was visually observed, and the herbicidal effect was evaluated by a growth inhibition rate (%) of from 0 (equivalent to the non-treated area) to 100% (complete kill).

| SMILES | inhibition at 250 g/ha [%] |
| --- | --- |
| CCOC(=O)c1c(S(C)(=O)=O)ccc(C(=O)c2cnn(CC)c2O)c1Cl [compound 153] | 0 |
| COc1c(S(C)(=O)=O)ccc(C(=O)c2cnn(C)c2O)c1C [compound 143] | 80 |

Each compound was assayed on redroot pigweed (Amaranthus retroflexus L.) (assay: Test Example 1: foliar treatment, upland pot test, redroot pigweed). Details: Amaranthus retroflexus, 31 g/ha active ingredient, observed 17th to 25th day after application, read-out: Growth inhibition rate (%) Redroot pigweed.
Format: in vivo
Source text: as §1, §2

| SMILES | inhibition at 31 g/ha [%] |
| --- | --- |
| CCOC(=O)c1c(S(C)(=O)=O)ccc(C(=O)c2cnn(CC)c2O)c1Cl [compound 153] | 90 |
| COc1c(S(C)(=O)=O)ccc(C(=O)c2cnn(C)c2O)c1C [compound 143] | 80 |

Each compound was assayed on prickly sida (Sida spinosa L.) (assay: Test Example 1: foliar treatment, upland pot test, prickly sida). Details: Sida spinosa, 31 g/ha active ingredient, observed 17th to 25th day after application, read-out: Growth inhibition rate (%) Prickly sida.
Format: in vivo
Source text: as §1, §2

| SMILES | inhibition at 31 g/ha [%] |
| --- | --- |
| CCOC(=O)c1c(S(C)(=O)=O)ccc(C(=O)c2cnn(CC)c2O)c1Cl [compound 153] | 70 |
| COc1c(S(C)(=O)=O)ccc(C(=O)c2cnn(C)c2O)c1C [compound 143] | 70 |

What follows are compounds tested on green foxtail (Setaria viridis L.) (assay: Test Example 1: foliar treatment, upland pot test, green foxtail). Details: Setaria viridis, 31 g/ha active ingredient, observed 17th to 25th day after application, read-out: Growth inhibition rate (%) Green foxtail.
Format: in vivo
Source text: as §1, §2

| SMILES | inhibition at 31 g/ha [%] |
| --- | --- |
| CCOC(=O)c1c(S(C)(=O)=O)ccc(C(=O)c2cnn(CC)c2O)c1Cl [compound 153] | 60 |
| COc1c(S(C)(=O)=O)ccc(C(=O)c2cnn(C)c2O)c1C [compound 143] | 70 |

These compounds were tested on crabgrass (Digitaria sanguinalis L.) (assay: Test Example 1: foliar treatment, upland pot test, crabgrass). Details: Digitaria sanguinalis, 31 g/ha active ingredient, observed 17th to 25th day after application, read-out: Growth inhibition rate (%) Crabgrass.
Format: in vivo
Source text: as §1, §2

| SMILES | inhibition at 31 g/ha [%] |
| --- | --- |
| CCOC(=O)c1c(S(C)(=O)=O)ccc(C(=O)c2cnn(CC)c2O)c1Cl [compound 153] | 80 |
| COc1c(S(C)(=O)=O)ccc(C(=O)c2cnn(C)c2O)c1C [compound 143] | 70 |

What follows are compounds tested on redroot pigweed (Amaranthus retroflexus L.) (assay: Test Example 2: soil application on the day after sowing, redroot pigweed). Details: Amaranthus retroflexus, 250 g/ha active ingredient, observed 19th to 28th day after application, read-out: Growth inhibition rate (%) Redroot pigweed.
Format: in vivo
Source text: as §3, §4

| SMILES | inhibition at 250 g/ha [%] |
| --- | --- |
| CCOC(=O)c1c(S(C)(=O)=O)ccc(C(=O)c2cnn(CC)c2O)c1Cl [compound 153] | 100 |
| COc1c(S(C)(=O)=O)ccc(C(=O)c2cnn(C)c2O)c1C [compound 143] | 100 |

Each compound was assayed on prickly sida (Sida spinosa L.) (assay: Test Example 2: soil application on the day after sowing, prickly sida). Details: Sida spinosa, 250 g/ha active ingredient, observed 19th to 28th day after application, read-out: Growth inhibition rate (%) Prickly sida.
Format: in vivo
Source text: as §3, §4

| SMILES | inhibition at 250 g/ha [%] |
| --- | --- |
| CCOC(=O)c1c(S(C)(=O)=O)ccc(C(=O)c2cnn(CC)c2O)c1Cl [compound 153] | 80 |
| COc1c(S(C)(=O)=O)ccc(C(=O)c2cnn(C)c2O)c1C [compound 143] | 90 |

Each compound was assayed on barnyardgrass (Echinochloa crus-galli L.) (assay: Test Example 1: foliar treatment, upland pot test, barnyardgrass). Details: Echinochloa crus-galli, 31 g/ha active ingredient, observed 17th to 25th day after application, read-out: Growth inhibition rate (%) Barnyardgrass.
Format: in vivo
Source text: as §1, §2

| SMILES | inhibition at 31 g/ha [%] |
| --- | --- |
| CCOC(=O)c1c(S(C)(=O)=O)ccc(C(=O)c2cnn(CC)c2O)c1Cl [compound 153] | 90 |
| COc1c(S(C)(=O)=O)ccc(C(=O)c2cnn(C)c2O)c1C [compound 143] | 10 |

What follows are compounds tested on rice (Oryza sativa L.) (assay: Test Example 2: soil application on the day after sowing, rice). Details: Oryza sativa, 250 g/ha active ingredient, observed 19th to 28th day after application, read-out: Growth inhibition rate (%) Rice.
Format: in vivo
Source text: as §3, §4

| SMILES | inhibition at 250 g/ha [%] |
| --- | --- |
| CCOC(=O)c1c(S(C)(=O)=O)ccc(C(=O)c2cnn(CC)c2O)c1Cl [compound 153] | 70 |
| COc1c(S(C)(=O)=O)ccc(C(=O)c2cnn(C)c2O)c1C [compound 143] | 100 |

The compounds below were run on velvetleaf (Abutilon theophrasti MEDIC.) (assay: Test Example 1: foliar treatment, upland pot test, velvetleaf). Details: Abutilon theophrasti, 31 g/ha active ingredient, observed 17th to 25th day after application, read-out: Growth inhibition rate (%) Velvetleaf.
Format: in vivo
Source text: as §1, §2

| SMILES | inhibition at 31 g/ha [%] |
| --- | --- |
| CCOC(=O)c1c(S(C)(=O)=O)ccc(C(=O)c2cnn(CC)c2O)c1Cl [compound 153] | 70 |
| COc1c(S(C)(=O)=O)ccc(C(=O)c2cnn(C)c2O)c1C [compound 143] | 98 |

What follows are compounds tested on green foxtail (Setaria viridis L.) (assay: Test Example 2: soil application on the day after sowing, green foxtail). Details: Setaria viridis, 250 g/ha active ingredient, observed 19th to 28th day after application, read-out: Growth inhibition rate (%) Green foxtail.
Format: in vivo
Source text: as §3, §4

| SMILES | inhibition at 250 g/ha [%] |
| --- | --- |
| CCOC(=O)c1c(S(C)(=O)=O)ccc(C(=O)c2cnn(CC)c2O)c1Cl [compound 153] | 100 |
| COc1c(S(C)(=O)=O)ccc(C(=O)c2cnn(C)c2O)c1C [compound 143] | 100 |

These compounds were tested on corn (Zea mays L.) (assay: Test Example 2: soil application on the day after sowing, corn). Details: Zea mays, 250 g/ha active ingredient, observed 19th to 28th day after application, read-out: Growth inhibition rate (%) Corn.
Format: in vivo
Source text: as §3, §4

| SMILES | inhibition at 250 g/ha [%] |
| --- | --- |
| CCOC(=O)c1c(S(C)(=O)=O)ccc(C(=O)c2cnn(CC)c2O)c1Cl [compound 153] | 10 |
| COc1c(S(C)(=O)=O)ccc(C(=O)c2cnn(C)c2O)c1C [compound 143] | 20 |

What follows are compounds tested on crabgrass (Digitaria sanquinalis L.) (assay: Test Example 2: soil application on the day after sowing, crabgrass). Details: Digitaria, 250 g/ha active ingredient, observed 19th to 28th day after application, read-out: Growth inhibition rate (%) Crabgrass.
Format: in vivo
Source text: as §3, §4

| SMILES | inhibition at 250 g/ha [%] |
| --- | --- |
| CCOC(=O)c1c(S(C)(=O)=O)ccc(C(=O)c2cnn(CC)c2O)c1Cl [compound 153] | 100 |
| COc1c(S(C)(=O)=O)ccc(C(=O)c2cnn(C)c2O)c1C [compound 143] | 100 |

What follows are compounds tested on barnyardgrass (Echinochloa crus-galli L.) (assay: Test Example 2: soil application on the day after sowing, barnyardgrass). Details: Echinochloa crus-galli, 250 g/ha active ingredient, observed 19th to 28th day after application, read-out: Growth inhibition rate (%) Barnyardgrass.
Format: in vivo
Source text: as §3, §4

| SMILES | inhibition at 250 g/ha [%] |
| --- | --- |
| CCOC(=O)c1c(S(C)(=O)=O)ccc(C(=O)c2cnn(CC)c2O)c1Cl [compound 153] | 100 |
| COc1c(S(C)(=O)=O)ccc(C(=O)c2cnn(C)c2O)c1C [compound 143] | 100 |

The compounds below were run on wheat (Triticum spp.) (assay: Test Example 2: soil application on the day after sowing, wheat). Details: Triticum, 250 g/ha active ingredient, observed 19th to 28th day after application, read-out: Growth inhibition rate (%) Wheat.
Format: in vivo
Source text: as §3, §4

| SMILES | inhibition at 250 g/ha [%] |
| --- | --- |
| CCOC(=O)c1c(S(C)(=O)=O)ccc(C(=O)c2cnn(CC)c2O)c1Cl [compound 153] | 10 |
| COc1c(S(C)(=O)=O)ccc(C(=O)c2cnn(C)c2O)c1C [compound 143] | 70 |

These compounds were tested on velvetleaf (Abutilon theophrasti MEDIC.) (assay: Test Example 2: soil application on the day after sowing, velvetleaf). Details: Abutilon theophrasti, 250 g/ha active ingredient, observed 19th to 28th day after application, read-out: Growth inhibition rate (%) Velvetleaf.
Format: in vivo
Source text: as §3, §4

| SMILES | inhibition at 250 g/ha [%] |
| --- | --- |
| CCOC(=O)c1c(S(C)(=O)=O)ccc(C(=O)c2cnn(CC)c2O)c1Cl [compound 153] | 100 |
| COc1c(S(C)(=O)=O)ccc(C(=O)c2cnn(C)c2O)c1C [compound 143] | 100 |
